Experimental findings from US20100267712A1, “ISOINDOLINE COMPOUNDS FOR THE TREATMENT OF SPINAL MUSCULAR ATROPHY AND OTHER USES” (The United States of America, as represented by the …, priority 2007, published 2010) are described below.

For this assay, the system named is SMN2-linked luciferase-reporter gene construct. In words: SMN Splice Reporter Assay (SMN2-linked luciferase reporter). The assay is classed as cell-based. The conditions noted are these: for EC50: cervical carcinoma cell lines, SMN2 splice luciferase reporter; for Fold Increase: fold-increase of luciferase over baseline reading of transformed cells without any test compound. An excerpt: As previously discussed, SMN1 is the gene deleted in SMA patients; the SMN2 gene remains intact in both SMA and normal patients. Therefore, SMN2 provides a potential means of increasing SMN production in SMA patients and is, thus, a target for developing SMA treatments. SMN2 is identical to SMN1 with the exception of a single base pair change that results in reduced expression of the gene. The reduction is based on the creation of an alternatively spliced RNA that produces an unstable protein carrying a deletion of exon 7. Both full length SMN and exon 7 deleted SMN are produced by the SMN2 gene via alternative RNA splicing, but the major product is the unstable deleted form.
Cervical carcinoma cell lines were transformed with a SMN2-linked luciferase-reporter gene construct. The reporter is designed to detect shifts in the alternative splicing of SMN2 sequences. In particular, the reporter is constructed as a fusion of the alternatively spliced sequences of the SMN2 gene and the luciferase gene. Luciferase sequences are in the correct translational reading frame only when the SMN2 sequences are spliced according to the normal SMN1 mechanism (e.g., splicing to include exon 7), which allows for translation of the stable SMN protein. Compounds were tested in the assay by administering the compound to the cell line and detecting an increase in the luciferase activity. The assay is described in greater detail in Zhang et al., Gene Ther., 8: 1532-8 (2001). Compounds were administered as described in Lunn et al, Chem. & Biol, 11: 1489-1493 (2004).
The results are reported as a fold-increase over a baseline reading of transformed cells without any test compound. The EC50 value also is reported in Table 1 for some exemplary compounds of the invention.
(In general: Reporter assays use an easily measured gene product as a stand-in for the process of interest.)

`COCn1ccc2ccc(N3Cc4ccc(OC)cc4C3=O)cc21` [Example 120431]: a half-maximal response (EC50) required 120 nM and the “Fold Increase” value came to 1.311.
With `COc1ccc2c(c1)C(=O)N(c1ccc3c(c1)n(C)c(=O)n3C)C2` [Example 120432], a half-maximal effect (EC50) was put at 830 nM and the “Fold Increase” value is given as 1.234.
Take `COc1ccc2c(c1)C(=O)N(c1ccc3[nH]c(=O)[nH]c3c1)C2` [Example 120433]: the midpoint of the response, the EC50, lay at 977 nM and the “Fold Increase” value came to 1.296.
As to `Cc1ccc2c(c1)CN(c1ccc3ccn(C)c3c1)C2=O` [Example 120434], the EC50 – broadly, the midpoint of the concentration-response curve – was 54 nM and the “Fold Increase” value turned out to be 1.708.
For `Cn1ccc2ccc(N3Cc4ccccc4C3=O)cc21` [Example 120435] the same measures were 640 nM and 1.585.
For `Cn1ccc2ccc(N3Cc4ccc(OC(F)F)cc4C3=O)cc21` [Example 120591] the same measures were 509 nM and 1.709.
For the compound `Cn1ccc2cc(N3Cc4cc(Br)ccc4C3=O)ccc21` [Example 120592], it took 112 nM to reach a half-maximal effect (EC50) and the “Fold Increase” value is on record as 1.51.
Regarding `COc1ccc2c(c1)C(=O)N(c1ccc3sc(C)nc3c1)C2` [Example 120593], the EC50 came out at 14 nM and the “Fold Increase” value is on record as 1.322.
Regarding `COc1ccc2c(c1)C(=O)N(c1ccc3c(c1)c(C)c(C)n3C)C2` [Example 120597], it took 777 nM to reach a half-maximal effect (EC50) and the “Fold Increase” value turned out to be 1.434.
For `COc1ccc2c(c1)C(=O)N(c1ccc3ncn(C)c3c1)C2` [Example 120598], the EC50 stood at 183 nM and the “Fold Increase” value came to 1.552.
Consider `COc1ccc2c(c1)C(=O)N(c1ccc3ccn(CC#N)c3c1)C2` [Example 120603], for which the EC50 turned out to be 2770 nM and the “Fold Increase” value is 1.199.
Take `Cn1ccc2cc(N3Cc4cc(Cl)ccc4C3=O)ccc21` [Example 120778]: the EC50 worked out at 131 nM and the “Fold Increase” value is recorded as 1.492.
For the compound `Cn1ccc2ccc(N3Cc4cc(Cl)ccc4C3=O)cc21` [Example 120779], the EC50 is 317 nM and the “Fold Increase” value was found to be 1.704.
On to `Cc1ccc2c(c1)CN(c1ccc3c(ccn3C)c1)C2=O` [Example 120780], for which the “Fold Increase” value is given as 1.344.
As for `COc1ccc2c(c1)CN(c1ccc3c(ccn3C)c1)C2=O` [Example 120782], the response was half-maximal at 184 nM (EC50) and the “Fold Increase” value is given as 1.49.
On to `COc1ccc2c(c1)C(=O)N(c1ccc3scnc3c1)C2` [Example 120785], for which the EC50 was 59 nM and the “Fold Increase” value is 1.353.
With `Cn1ccc2cc(N3Cc4c(Cl)cccc4C3=O)ccc21` [Example 120786], the EC50 stood at 679 nM and the “Fold Increase” value was determined as 1.376.
As for `O=C1c2cc3c(cc2CN1c1ccc2ncccc2c1)OCCO3` [Example 120787], the EC50 stood at 15 nM and the “Fold Increase” value is reported as 1.807.
As for `Cn1ccc2ccc(N3Cc4c(Cl)cccc4C3=O)cc21` [Example 120788], the “Fold Increase” value was 1.25.
For `COc1cc2c(cc1OC)C(=O)N(c1ccc3c(ccn3C)c1)C2` [Example 120789], the EC50 is 9790 nM and the “Fold Increase” value came to 1.427.
As to `Cn1ccc2ccc(N3Cc4cccc(Cl)c4C3=O)cc21` [Example 120792], a half-maximal response (EC50) required 238 nM and the “Fold Increase” value was found to be 1.642.
Take `Cn1ccc2cc(N3Cc4cccc(Cl)c4C3=O)ccc21` [Example 120793]: the 50% effective concentration (EC50) came out at 361 nM and the “Fold Increase” value turned out to be 1.395.
For `Cn1ccc2ccc(N3Cc4ccc(-c5ccccc5)cc4C3=O)cc21` [Example 120949], the EC50 came to 373 nM and the “Fold Increase” value is 1.816.
With `Cn1ccc2ccc(N3Cc4ccc(Cl)cc4C3=O)cc21` [Example 120950], a half-maximal effect (EC50) was put at 984 nM and the “Fold Increase” value was determined as 1.482.
For `COc1ccc2c(c1)CN(c1ccc3ncccc3c1)C2=O` [Example 120951], the half-maximal effective concentration (EC50) came out at 135 nM and the “Fold Increase” value was 1.769.
As for `Cc1cccc2c1CN(c1ccc3c(ccn3C)c1)C2=O` [Example 120952], the EC50 was determined as 414 nM and the “Fold Increase” value is reported as 1.374.
For `Cc1cccc2c1CN(c1ccc3ccn(C)c3c1)C2=O` [Example 120953] the same measures were 1160 nM and 1.495.
As to `COc1cc2c(cc1OC)C(=O)N(c1ccc3ncccc3c1)C2` [Example 120954], the midpoint of the response, the EC50, lay at 2040 nM and the “Fold Increase” value is listed as 1.356.
For the compound `COc1cccc2c1CN(c1ccc3ncccc3c1)C2=O` [Example 120956], the EC50 stood at 1250 nM and the “Fold Increase” value turned out to be 1.329.
On to `COc1ccc2c(c1)C(=O)N(c1ccc3ocnc3c1)C2` [Example 120957], for which the “Fold Increase” value worked out at 1.254.
In the case of `CC(=O)Nc1cccc2c1CN(c1ccc3c(ccn3C)c1)C2=O` [Example 121074], the “Fold Increase” value is listed as 1.078.
`CC(=O)Nc1cccc2c1CN(c1ccc3ccn(C)c3c1)C2=O` [Example 121075]: the “Fold Increase” value worked out at 1.087.
In the case of `COc1ccc2c(c1)C(=O)N(c1ccc3c(ccn3C(C)=O)c1)C2` [Example 121076], the midpoint of the response, the EC50, lay at 49 nM and the “Fold Increase” value turned out to be 1.295.
Regarding `COc1ccc2c(c1)C(=O)N(c1ccc3c(c1)CC(=O)N3)C2` [Example 121077], the “Fold Increase” value is 1.107.
As to `COc1ccc2c(c1)C(=O)N(c1cnc3[nH]ccc3c1)C2` [Example 121078], the “Fold Increase” value is given as 1.246.
Regarding `COc1ccc2c(c1)C(=O)N(c1cnc3c(ccn3C)c1)C2` [Example 121079], the EC50 came out at 42 nM and the “Fold Increase” value was 1.385.
With `COc1ccc2c(c1)C(=O)N(c1ccc3ccn(CCN)c3c1)C2` [Example 121080], the “Fold Increase” value was found to be 1.163.
As for `CC(=O)Nc1cccc2c1C(=O)N(c1ccc3c(ccn3C)c1)C2` [Example 121081], a half-maximal response (EC50) required 177 nM and the “Fold Increase” value turned out to be 1.581.
As to `CC(=O)Nc1cccc2c1C(=O)N(c1ccc3ccn(C)c3c1)C2` [Example 121082], the concentration giving a half-maximal response (EC50) came out at 825 nM and the “Fold Increase” value came to 1.496.
Regarding `COc1ccc2c(c1)C(=O)N(c1ccc3ccn(CCNC(C)=O)c3c1)C2` [Example 121083], the “Fold Increase” value was found to be 1.083.
On to `Cn1ccc2ccc(N3Cc4ccc(N)cc4C3=O)cc21` [Example 121256], for which the midpoint of the response, the EC50, lay at 1590 nM and the “Fold Increase” value is 1.638.
For `Cn1ccc2ccc(N3Cc4cc(N)ccc4C3=O)cc21` [Example 121257], the half-maximal effective concentration (EC50) worked out at 175 nM and the “Fold Increase” value stood at 1.856.
Consider `COc1ccc2c(c1)C(=O)N(c1ccc3ccn(C(C)=O)c3c1)C2` [Example 121260], for which a half-maximal response (EC50) required 35 nM and the “Fold Increase” value was 1.414.
For `COc1ccc2c(c1)C(=O)N(c1ccc3ncoc3c1)C2` [Example 121262], the midpoint of the response, the EC50, lay at 336 nM and the “Fold Increase” value was 1.317.
As for `COc1ccc2c(c1)C(=O)N(c1ccc3c(ccn3C)n1)C2` [Example 121263], a half-maximal response (EC50) required 161 nM and the “Fold Increase” value was determined as 1.39.
Consider `Cc1ccc2c(c1)C(=O)N(c1ccc3ccn(C)c3c1)C2` [Example 121504], for which the EC50 turned out to be 422 nM and the “Fold Increase” value is 1.742.
Regarding `CC(=O)Nc1ccc2c(c1)CN(c1ccc3ccn(C)c3c1)C2=O` [Example 121506], a half-maximal response (EC50) required 1040 nM and the “Fold Increase” value was found to be 1.488.
As to `Cc1ccc2c(c1)C(=O)N(c1ccc3c(ccn3C)c1)C2` [Example 121507], it took 34 nM to reach a half-maximal effect (EC50) and the “Fold Increase” value amounted to 1.411.
Consider `CC(=O)Nc1ccc2c(c1)CN(c1ccc3c(ccn3C)c1)C2=O` [Example 121508], for which the “Fold Increase” value is 1.201.
With `COc1cccc2c1CN(c1ccc3sccc3c1)C2=O` [Example 121509], the EC50 is 3710 nM and the “Fold Increase” value was 1.564.
For `Cn1ccc2cc(N3Cc4ccc(O)cc4C3=O)ccc21` [Example 121510] the same measures were 159 nM and 1.542.
`COc1ccc2c(c1)CN(c1ccc3ccsc3c1)C2=O` [Example 121511]: the EC50 is 113 nM and the “Fold Increase” value is listed as 1.808.
With `O=C1c2cc(OC(F)F)ccc2CN1c1ccc2ccsc2c1` [Example 121512], a half-maximal response (EC50) required 226 nM and the “Fold Increase” value was determined as 1.766.
As for `COc1cccc2c1CN(c1ccc3ccsc3c1)C2=O` [Example 121513], the midpoint of the response, the EC50, lay at 749 nM and the “Fold Increase” value amounted to 1.612.
For the compound `COc1ccc2c(c1)C(=O)N(c1cc3cc[nH]c3cn1)C2` [Example 121514], the “Fold Increase” value is reported as 1.172.
As for `COc1ccc2c(c1)C(=O)N(c1ccc3[nH]ccc3n1)C2` [Example 121515], the EC50 is 222 nM and the “Fold Increase” value is reported as 1.24.
For `COc1ccc2c(c1)CN(c1ccc3sccc3c1)C2=O` [Example 121643] the same measures were 45 nM and 1.778.
